For series [1], the target named is PNR mutations associated with Enhanced S-Cone Syndrome (ESCS). Further details: method as in PMID 35508617. Conditions: cited from earlier work.
For series [2], the system named is MBP-NR2E1-LBD. More on the design: method as in PMID 35508617. Conditions: MS-based binding experiment; cited from earlier work.
For series [3], the system named is PNR protein levels. More on the design: method as in PMID 35508617, PMID 19379737. Conditions: retinoblastoma cells, 1 µM, Western blot; cited from earlier work. (In western blotting, separated proteins are transferred to a membrane and probed.)
Series [4] concerns the target MBP-PNR-LBD. Further details: method as in PMID 35508617. Conditions: determined by UV absorption; cited from earlier work.
Series [5] relates to PNR. Further details: method as in PMID 35508617. Conditions: cited from earlier work.
The subject of series [6] is ATF6. The series can be described thus: ATF6 activity assay. In kind it is cell-based. The following applies: tunicamycin treated Hela ATF6 reporter cells. From the text:
Next, we evaluated the potential impact of the NR2 modulator set on endoplasmic reticulum (ER) stress in an ATF6 activity assay (Fig. 4b). The activating transcription factor 6 (ATF6) participates in the unfolded protein response and is activated under ER stress.[164] Tunicamycin-induced ATF6 activity was not affected by RXR and TLX modulators but was reduced by the inverse PNR agonists 22 and 23.
Hela cells containing a Renilla luciferase reporter gene for ATF6 activity (ATF6 Leeporter™ Luciferase Reporter-HeLa Cell Line, Abeomics Inc.; #14-138ACL) were cultured in DMEM supplemented with 10% heat-inactivated FCS, penicillin (100 U/mL), streptomycin (100 μg/mL) and puromycin (3 µg/mL) at 37°C and 5% (v/v) CO2 and seeded in 96-well plates (1 × 10^5 per well). After 24 h, the cells were incubated with the test compounds solubilized with 0.1% DMSO in the same medium without puromycin. After 4 h of incubation, tunicamycin (100 ng/mL) was added. After another 18 h of incubation, cells were assayed for renilla luminescence using DualGlo reagent (Promega) on a Tecan SPARK Cyto (Tecan). Test samples were normalized to the 0.1% DMSO control.

The subject of series [7] is nuclear receptors. The experiment in a line: Selectivity profiling in Gal4-hybrid reporter gene assay panel. In kind it is cell-based, human. Conditions: at active concentration.
Method: Compounds were tested at concentrations around EC90 according to the literature or at the highest nontoxic concentration (from the multiplex toxicity assay). […] (b) Selectivity profiling of NR2 modulators in a representative panel of nuclear receptors outside the NR2 family. […] Effects <5% of the respective reference ligands were considered as not relevant and omitted. Only effects are shown that are statistically significant against VP16 ctrl (Figure S3); n = 3.
HEK293T cells (German Collection of Microorganisms and Cell Culture GmbH, DSMZ) were cultured in Dulbecco’s modified Eagle’s medium (DMEM), high glucose supplemented with 10% fetal calf serum (FCS), sodium pyruvate (1 mM), penicillin (100 U/mL), and streptomycin (100 μg/mL) at 37 °C and 5% CO2 and seeded in 96-well plates (3 × 10^4 cells/well). The medium was changed to Opti-MEM without supplements, and the cells were transiently transfected with one pFA-CMV-hNR-LBD clone, pFR-Luc, and pRL-SV40 using Lipofectamine LTX reagent (Invitrogen, Thermo Fisher Scientific) according to the manufacturer’s instructions. Five hours after transfection, cells were incubated with the test compounds in Opti-MEM supplemented with penicillin (100 U/mL), streptomycin (100 μg/mL), and 0.1% DMSO. Each sample was set up in duplicates and tested in at least three independent experiments. After 16 h incubation, luciferase activity was measured using the Dual-Glo Luciferase Assay System (Promega) according to the manufacturer’s protocol on a Tecan Spark luminometer (Tecan Deutschland GmbH, Crailsheim, Germany). Firefly luminescence was divided by Renilla luminescence and multiplied by 1000 resulting in relative light units (RLUs) to normalize for transfection efficiency and cell growth. Fold activation was obtained by dividing the mean RLU of the test compound by the mean^a RLU of the untreated control, and relative activation was calculated by dividing the fold activation of a test sample by the fold activation of the respective reference agonist. Antagonistic effects were evaluated by coincubation of the test compound with the respective reference ligand.
In series [8] the test system is COS-7 cells. The series can be described thus: Multiplex toxicity assay. In kind it is cell-based. Conditions: 24 h, at active concentration. As to the method: COS-7 cells (DSMZ #ACC 60) were cultured at 37°C and 5% CO2 in DMEM high glucose medium supplemented with sodium pyruvate (1 mM), penicillin (100 U/mL), streptomycin (100 µg/mL), and 10% fetal calf serum (FCS). After aspirating the wells, the cells were seeded at 1x10^5 cells per well in complete culture medium. […] Each sample was prepared in at least 4 biologically independent replicates. After incubation for 24 h, the wells were aspirated and incubated for 30 min with stimulation medium containing 1 µM NucView® 405 fluorogenic caspase-3 substrate (#10405, Biotium, Fremont, USA) and Live-or-Dye Nuc-Fix Red (0.05x, Biotium, Inc., Fremont, CA, 1691 USA) to detect apoptosis and necrosis, respectively. After incubation, a total of 6 fluorescence images per well at 10x magnification were taken to detect NucView®-positive (Ex: 381–400 nm, Em: 414–450 nm) and Live-or-Dye-positive cells (Ex: 543−566 nm, Em: 580−611 nm) using on a Tecan Spark Cyto (Tecan Group AG). Reference readings for background correction and detection of auto-fluorescence were taken at 414–450 nm prior to staining. Thereafter, wells were aspirated, the cells were incubated for 3 h with 90 µL culture medium (0.2% FCS) and 10 µL Cell Counting Kit-8 solution (CCK-8, MedChem Express #HY-K0301), and absorbance was measured at 1, 2, and 3h of incubation at 450 nm on a Tecan Spark Cyto to assess metabolic activity of the cells. Before drug administration, after the first medium exchange, 24 h after drug administration, and after fluorescence imaging cell confluence was assessed using the Tecan Spark Cyto, to account for changes in cell confluence due to drug administration and cell handling. The number of apoptotic cells, metabolic activity, and changes in cell confluence in response to drug treatment were all normalized to the vehicle control of each biological replicate individually.

The subject of series [9] is HNF4α. Further details: method as in PMID 33114319. The following applies: reporter gene assay; cited from earlier work. (In a reporter assay the amount or activity of a reporter protein is the signal.)
Series [10] deals with HNF4α. More on the design: method as in PMID 33114319. Conditions: ITC; cited from earlier work. (ITC needs no label: the signal is the heat of the interaction.)
The subject of series [11] is fructose-1,6-bisphosphatase 1 (FBP1). More on the design: method as in PMID 33114319. Conditions: HepG2 cells; cited from earlier work.

`C=CC1=C(C)/C(=C/C2=NC(=C\c3[nH]c(/C=C4\NC(=O)C(C)=C4C=C)c(C)c3CCC(=O)O)/C(CCC(=O)O)=C2C)NC1=O` [compound 25, biliverdin]: the Kd was 9 µM in [1] and 200 nM in [4]. Further, in [2], the “interaction with MBP-NR2E1-LBD (TLX)” value is listed as “no interaction”. Further, the PNR protein levels result in series [3] is reported as “two-fold increase”. Besides, the PNR activation entry in series [5] (reporter gene assay in 293F cells) is reported as “approximately 3 fold”. Also, in [5] (reporter gene assay), the EC50 is 5 nM. Further, in series [6], the “tunicamycin-induced ATF6 activity” value is listed as “slightly diminished”. Further, the “selectivity over other nuclear receptors” value in [7] is on record as “Favorable selectivity profiles”. For the same compound, the cytotoxicity entry in series [8] is “lack of cytotoxicity”.
As to `OC(c1ccc(F)cc1)c1ccc(F)cc1` [compound 5], the IC50 in series [9] was 24 µM. In addition, the equilibrium dissociation constant (Kd) in [10] was 1700 nM. Moreover, the “expression of HNF4 target gene FBP1” value in [11] is “diminished expression”.

Broadly, the Kd is the equilibrium constant for the complex coming apart. What is called EC50 is the concentration at which the effect is half-maximal. One may read the IC50 as the midpoint of a concentration-inhibition curve.

The values are drawn from paper PMC7617459, “Comparative Evaluation and Profiling of Chemical Tools for the Nuclear Hormone Receptor Family 2” (ACS pharmacology & translational science, 2025).
